In patent publication US8410161B2, “Thioxanthone ring system derivatives” (National Defense Medical Center, priority 2010, dated 2013):
Like-named read-outs stand apart in the source and are kept apart here.

Tests used:
DU145 = experiment: NCI in vitro DTP human cell line screen, DU145; format: cell-based; details: Prostate Cancer, 1.00E−5 Molar
Procedure: (§1) Then, a cell toxicity assay of the cancer lines made by National Cancer Institute will be discussed as follows. The cell toxicity assay is performed by choosing ten compounds (existing certification numbers) from the 59 compounds disclosed in the present invention first.

SNB-19 = experiment: NCI in vitro DTP human cell line screen, SNB-19; format: cell-based; details: CNS Cancer, 1.00E−5 Molar
Procedure: as §1

SW-620 = experiment: NCI in vitro DTP human cell line screen, SW-620; format: cell-based; details: Colon Cancer, 1.00E−5 Molar
Procedure: as §1

KM12 = experiment: NCI in vitro DTP human cell line screen, KM12; format: cell-based; details: Colon Cancer, 1.00E−5 Molar
Procedure: as §1

SK-MEL-2 = experiment: NCI in vitro DTP human cell line screen, SK-MEL-2; format: cell-based; details: Melanoma, 1.00E−5 Molar
Procedure: as §1

TK-10 = experiment: NCI in vitro DTP human cell line screen, TK-10; format: cell-based; details: Renal Cancer, 1.00E−5 Molar
Procedure: as §1

BT-549 = experiment: NCI in vitro DTP human cell line screen, BT-549; format: cell-based; details: Breast Cancer, 1.00E−5 Molar
Procedure: as §1

60 cancer lines = experiment: NCI cell toxicity assay of 60 cancer lines, whole panel summary; format: cell-based, human; details: 1.00E−5 Molar; for Growth Percent, Mean: mean over all cell lines; for cancer types with the better inhibition effect (in words): summary of Table 3
Procedure: as §1

SF-539 = experiment: NCI in vitro DTP human cell line screen, SF-539; format: cell-based; details: CNS Cancer, 1.00E−5 Molar
Procedure: as §1

CAKI-1 = experiment: NCI in vitro DTP human cell line screen, CAKI-1; format: cell-based; details: Renal Cancer, 1.00E−5 Molar
Procedure: as §1

[1] = MTT assay, HEL299 fibroblast; format: cell-based; details: human
From the text: (§2) Please refer to FIG. 4C, various cell viabilities of the HEL299 cell lines can be obtained through the MTT assay while the compounds No. 1˜30 are used to treat HEL299 cell lines, wherein HEL299 cell lines are fibroblast.

NCI/ADR-RES = experiment: NCI in vitro DTP human cell line screen, NCI/ADR-RES; format: cell-based; details: Ovarian Cancer, 1.00E−5 Molar
Procedure: as §1

OVCAR-4 = experiment: NCI in vitro DTP human cell line screen, OVCAR-4; format: cell-based; details: Ovarian Cancer, 1.00E−5 Molar
Procedure: as §1

UACC-62 = experiment: NCI in vitro DTP human cell line screen, UACC-62; format: cell-based; details: Melanoma, 1.00E−5 Molar
Procedure: as §1

SN12C = experiment: NCI in vitro DTP human cell line screen, SN12C; format: cell-based; details: Renal Cancer, 1.00E−5 Molar
Procedure: as §1

HEL299 fibroblast = experiment: MTT assay, HEL299 fibroblast; format: cell-based
From the text: as §2

SMILES	Growth Percent (DU145) [%]	Growth Percent (SNB-19) [%]	Growth Percent (SW-620) [%]	Growth Percent (KM12) [%]	Growth Percent (SK-MEL-2) [%]	Growth Percent (TK-10) [%]	Growth Percent (BT-549) [%]	Growth Percent, Mean (60 cancer lines) [%]	cancer types with the better inhibition effect (in words) (60 cancer lines)	Growth Percent (SF-539) [%]	Growth Percent (CAKI-1) [%]	viability [1] [%]	Growth Percent (NCI/ADR-RES) [%]	Growth Percent (OVCAR-4) [%]	Growth Percent (UACC-62) [%]	Growth Percent (SN12C) [%]	cell viabilities of HEL299 cell lines (MTT assay) (HEL299 fibroblast; HEL299, normal fibroblast) [%]	viability ([1]; HEL299, normal fibroblast, read-out: cell viabilities of HEL299 cell lines (MTT assay)) [%]	cytotoxicity effect on the normal fibroblast (in words) (HEL299 fibroblast)
CCCSc1ccc2c(=O)c3ccccc3sc2c1Cl [No. 3, 4-Chloro-3-(propylthio)-9H-thioxanthen-9-one]	91.93	94.29	87.67	86.73	114.59	103.80	93.64	91.31	better inhibition effect on non-small cell lung cancer	82.48	78.97	88.9 ± 11.1	93.97	73.74	84.56	85.72			
O=c1c2ccccc2sc2c(Cl)c(SCc3ccccc3)ccc12 [No. 23, 3-(Benzylthio)-4-chloro-9H-thioxanthen-9-one]	107.70	83.57	69.53	104.90	116.81	95.49	84.98	81.22	better inhibition effect on Leukemia, non-small cell lung cancer, colorectal cancer, central nervous system cancer, ovarian cancer and kidney cancer	102.89	54.75		90.62	15.10	90.92	79.25	85.2 ± 5.26	82.5	
COc1ccc(CSc2ccc3c(=O)c4ccccc4sc3c2Cl)cc1 [No. 27, 4-Chloro-3-(4-methoxybenzylthio)-9H-thioxanthen-9-one]	114.70	97.16	106.98	108.05	104.94	105.39	93.21	103.13		106.78	102.18	92.4	106.73	104.27	91.61	94.49			without the cytotoxicity effect
O=c1c2ccccc2sc2c(Cl)c(SCc3ccc(Cl)cc3)ccc12 [No. 26, 4-Chloro-3-(4-chlorobenzylthio)-9H-thioxanthen-9-one]	108.56	96.85	105.00	107.42	90.37	100.13	94.67	99.47		96.81	98.76	58.7 ± 5.55	100.89	107.67	92.54	94.51			
